Source: PMC3388080 (PLoS ONE, 2012)

Target: T1, rHCRTR2 (Rattus norvegicus, UniProt P56719)
T1 construct: expressed in transfected cells; host or cells: HEK293 (transient transfection, pCI-Neo vector), membrane preparation
Test: Inhibition of [^3H]almorexant binding to HEK293-rHCRTR2 membranes
Source text: The rat cDNAs encoding HCRTR1 (Accession No. P56718) and HCRTR2 (Accession No. P56719) were subcloned into pCI-Neo expression vectors (Promega, Madison, WI) and used to transfect HEK293 cells (acquired commercially from ATCC-LGC, Molsheim, France) as previously described.

T1 sequence (P56719 whole entry): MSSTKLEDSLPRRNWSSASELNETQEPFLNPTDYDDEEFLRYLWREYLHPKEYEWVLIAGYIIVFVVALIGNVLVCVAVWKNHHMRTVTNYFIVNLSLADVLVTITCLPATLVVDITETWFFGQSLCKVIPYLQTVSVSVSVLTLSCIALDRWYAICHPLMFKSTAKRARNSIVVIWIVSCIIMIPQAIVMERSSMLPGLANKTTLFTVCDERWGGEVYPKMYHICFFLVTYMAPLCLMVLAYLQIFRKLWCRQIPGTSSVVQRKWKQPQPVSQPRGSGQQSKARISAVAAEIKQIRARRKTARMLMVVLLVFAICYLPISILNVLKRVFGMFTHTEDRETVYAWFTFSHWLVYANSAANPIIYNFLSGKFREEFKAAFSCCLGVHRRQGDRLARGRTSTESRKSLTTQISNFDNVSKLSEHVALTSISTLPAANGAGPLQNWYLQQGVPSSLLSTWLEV

CNC(=O)[C@@H](c1ccccc1)N1CCc2cc(OC)c(OC)cc2[C@@H]1CCc1ccc(C(F)(F)F)cc1 [almorexant, (2R)-2-[(1S)-6,7-Dimethoxy-1-[2-(4-trifluoromethyl-phenyl)-ethyl]-3,4-dihydro-1H-isoquinolin-2-yl]-N-methyl-2-phenyl-acetamide]
Ki: 2 nM
